Tests used:
woolly cupgrass = test: Test C pre-/postemergence herbicide test; format: in vivo, Eriochloa villosa; details: for Cupgrass, Woolly plant response rating: Preemergence, 500 g ai/ha, scale 0 to 100, 0 no effect, 100 complete control
Method in brief: (§1)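 Seeds were planted and sprayed preemergence with test chemicals in a non-phytotoxic solvent mixture containing surfactant; postemergence treatments went onto plants 2 to 18 cm tall (1- to 4-leaf stage). After 12 to 14 days in a greenhouse, injury was rated visually against untreated controls on a 0–100 scale.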

lambsquarters = test: Test C pre-/postemergence herbicide test; format: in vivo, Chenopodium album; details: for Lambsquarters plant response rating: Preemergence, 500 g ai/ha, scale 0 to 100, 0 no effect, 100 complete control
Method in brief: as §1

corn = test: Test C pre-/postemergence herbicide test; format: in vivo, Zea mays; details: for Corn plant response rating: Preemergence, 500 g ai/ha, scale 0 to 100, 0 no effect, 100 complete control
Method in brief: as §1

johnsongrass = test: Test C pre-/postemergence herbicide test; format: in vivo, Sorghum halepense; details: for Johnsongrass plant response rating: Preemergence, 500 g ai/ha, scale 0 to 100, 0 no effect, 100 complete control
Method in brief: as §1

kochia = test: Test C pre-/postemergence herbicide test; format: in vivo, Kochia scoparia; details: for Kochia plant response rating: Preemergence, 500 g ai/ha, scale 0 to 100, 0 no effect, 100 complete control
Method in brief: as §1

rice = test: Test C flooded paddy test; format: in vivo, Oryza sativa; details: for Plant response rating, Rice: 500 g ai/ha, visual rating after 12 to 14 days
Method in brief: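 Injury scored visually against controls on a 0 (no effect) to 100 (complete control) scale, 12 to 14 days after treatment in greenhouse. Flooded paddy plants treated at 2-leaf stage; postemergence plants at 1- to 4-leaf stage, 2 to 18 cm tall.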

large crabgrass = test: Test C pre-/postemergence herbicide test; format: in vivo, Digitaria sanguinalis; details: for Crabgrass, Large plant response rating: Preemergence, 500 g ai/ha, scale 0 to 100, 0 no effect, 100 complete control
Method in brief: as §1

ducksalad = test: Test C flooded paddy test; format: in vivo, Heteranthera limosa; details: for Plant response rating, Ducksalad: 500 g ai/ha, visual rating after 12 to 14 days
[1] = 125 g ai/ha, scale 0 (no effect) to 100 (complete control), visual, 12 to 14 days, preemergence
[2] = 250 g ai/ha, scale 0 to 100 (0 no effect, 100 complete control), visual, 12 to 14 days, preemergence
[3] = 62 g ai/ha, scale 0 to 100 (0 no effect, 100 complete control)
[4] = 125 g ai/ha, scale 0 to 100 (0 no effect, 100 complete control)
[5] = 250 g ai/ha, scale of 0 to 100, 0 is no effect, 100 is complete control
[6] = scale 0 to 100 (0 no effect, 100 complete control)
[7] = 62 g ai/ha, preemergence, scale 0 to 100

CCn1nc(C(C)(C)C)cc1C(=O)Nc1cc(C#N)ccc1F [Compound 140]
Plant response rating (0 = no effect, 100 = complete control), Cupgrass, Woolly (woolly cupgrass; 62 g ai/ha, preemergence): 0 | Plant response rating, Cupgrass, Woolly (woolly cupgrass; [1]): 0 | Plant response rating, Cupgrass, Woolly (woolly cupgrass; [2]): 0 | Cupgrass, Woolly plant response rating (woolly cupgrass): 45 | Plant response rating (0 = no effect, 100 = complete control), Lambsquarters (lambsquarters; 62 g ai/ha, preemergence): 75 | Plant response rating, Lambsquarters (lambsquarters; [1]): 85 | Lambsquarters plant response rating (lambsquarters): 100 | Plant response rating (0 = no effect, 100 = complete control), Corn (corn; 62 g ai/ha, preemergence): 0 | Plant response rating, Corn (corn; [1]): 0 | Plant response rating, Corn (corn; [2]): 0 | Corn plant response rating (corn): 0 | Plant response rating (0 = no effect, 100 = complete control), Johnsongrass (johnsongrass; 62 g ai/ha, preemergence): 0 | Plant response rating, Johnsongrass (johnsongrass; [1]): 45 | Johnsongrass plant response rating (johnsongrass): 75 | Plant response rating (0 = no effect, 100 = complete control), Kochia (kochia; 62 g ai/ha, preemergence): 70 | Plant response rating, Kochia (kochia; [1]): 75 | Kochia plant response rating (kochia): 100 | Rice plant response rating (rice; [3]): 0 | Rice plant response rating (rice; [4]): 0 | Rice plant response rating (rice; [5]): 0 | Plant response rating, Rice (rice; [6]): 0 | Plant response rating (0 = no effect, 100 = complete control), Crabgrass, Large (large crabgrass; 62 g ai/ha, preemergence): 0 | Plant response rating, Crabgrass, Large (large crabgrass; [1]): 65 | Plant response rating, Crabgrass, Large (large crabgrass; [2]): 75 | Crabgrass, Large plant response rating (large crabgrass): 100 | Ducksalad plant response rating (ducksalad; [3]): 0 | Ducksalad plant response rating (ducksalad; [4]): 0 | Ducksalad plant response rating (ducksalad; [5]): 0 | Plant response rating, Ducksalad (ducksalad; [6]): 20

CCNC(=O)c1ccnc(NC(=O)c2cc(C(C)(C)C)nn2CC)c1 [Compound 152]
Plant response rating, Cupgrass, Woolly (woolly cupgrass; [7]): 40 | Plant response rating, Cupgrass, Woolly (woolly cupgrass; [1]): 50 | Plant response rating, Cupgrass, Woolly (woolly cupgrass; [2]): 100 | Cupgrass, Woolly plant response rating (woolly cupgrass): 100 | Plant response rating, Lambsquarters (lambsquarters; [7]): 100 | Plant response rating, Lambsquarters (lambsquarters; [1]): 100 | Lambsquarters plant response rating (lambsquarters): 100 | Plant response rating, Corn (corn; [7]): 40 | Plant response rating, Corn (corn; [1]): 45 | Plant response rating, Corn (corn; [2]): 50 | Corn plant response rating (corn): 70 | Plant response rating, Johnsongrass (johnsongrass; [7]): 80 | Plant response rating, Johnsongrass (johnsongrass; [1]): 100 | Johnsongrass plant response rating (johnsongrass): 100 | Plant response rating, Kochia (kochia; [7]): 100 | Plant response rating, Kochia (kochia; [1]): 100 | Kochia plant response rating (kochia): 100 | Rice plant response rating (rice; [3]): 50 | Rice plant response rating (rice; [4]): 75 | Rice plant response rating (rice; [5]): 75 | Plant response rating, Rice (rice; [6]): 80 | Plant response rating, Crabgrass, Large (large crabgrass; [7]): 100 | Plant response rating, Crabgrass, Large (large crabgrass; [1]): 100 | Plant response rating, Crabgrass, Large (large crabgrass; [2]): 100 | Crabgrass, Large plant response rating (large crabgrass): 100 | Ducksalad plant response rating (ducksalad; [3]): 85 | Ducksalad plant response rating (ducksalad; [4]): 85 | Ducksalad plant response rating (ducksalad; [5]): 85 | Plant response rating, Ducksalad (ducksalad; [6]): 85

CCc1nn(C(C)(C)C)cc1C(=O)Nc1cccc(C(C)=NO)c1 [Compound 188]
Plant response rating, Cupgrass, Woolly (woolly cupgrass; [7]): 0 | Plant response rating, Cupgrass, Woolly (woolly cupgrass; [1]): 60 | Plant response rating, Cupgrass, Woolly (woolly cupgrass; [2]): 70 | Cupgrass, Woolly plant response rating (woolly cupgrass): 75 | Plant response rating, Lambsquarters (lambsquarters; [7]): 95 | Plant response rating, Lambsquarters (lambsquarters; [1]): 100 | Lambsquarters plant response rating (lambsquarters): 100 | Plant response rating, Corn (corn; [7]): 0 | Plant response rating, Corn (corn; [1]): 0 | Plant response rating, Corn (corn; [2]): 0 | Corn plant response rating (corn): 5 | Plant response rating, Johnsongrass (johnsongrass; [7]): 0 | Plant response rating, Johnsongrass (johnsongrass; [1]): 20 | Johnsongrass plant response rating (johnsongrass): 75 | Plant response rating, Kochia (kochia; [7]): 0 | Plant response rating, Kochia (kochia; [1]): 0 | Kochia plant response rating (kochia): 95 | Rice plant response rating (rice; [3]): 35 | Rice plant response rating (rice; [4]): 45 | Rice plant response rating (rice; [5]): 65 | Plant response rating, Rice (rice; [6]): 75 | Plant response rating, Crabgrass, Large (large crabgrass; [7]): 95 | Plant response rating, Crabgrass, Large (large crabgrass; [1]): 95 | Plant response rating, Crabgrass, Large (large crabgrass; [2]): 95 | Crabgrass, Large plant response rating (large crabgrass): 100 | Ducksalad plant response rating (ducksalad; [3]): 20 | Ducksalad plant response rating (ducksalad; [4]): 65 | Ducksalad plant response rating (ducksalad; [5]): 75 | Plant response rating, Ducksalad (ducksalad; [6]): 85

Source: patent US20060069132A1, “Azolecarboxamide herbicides” (priority 2004, published 2006)
